ChEMBL document CHEMBL5653615 (J Biol Chem, 2013)
One block for each molecule: values may come before it.

What was measured:
[1] = target: T1, Serine/threonine-protein kinase Nek1 (Homo sapiens) (UniProt Q96PY6); experiment: Inhibition of human NEK1 at 500 nM by HotSpot assay relative to control
T1 sequence (whole entry): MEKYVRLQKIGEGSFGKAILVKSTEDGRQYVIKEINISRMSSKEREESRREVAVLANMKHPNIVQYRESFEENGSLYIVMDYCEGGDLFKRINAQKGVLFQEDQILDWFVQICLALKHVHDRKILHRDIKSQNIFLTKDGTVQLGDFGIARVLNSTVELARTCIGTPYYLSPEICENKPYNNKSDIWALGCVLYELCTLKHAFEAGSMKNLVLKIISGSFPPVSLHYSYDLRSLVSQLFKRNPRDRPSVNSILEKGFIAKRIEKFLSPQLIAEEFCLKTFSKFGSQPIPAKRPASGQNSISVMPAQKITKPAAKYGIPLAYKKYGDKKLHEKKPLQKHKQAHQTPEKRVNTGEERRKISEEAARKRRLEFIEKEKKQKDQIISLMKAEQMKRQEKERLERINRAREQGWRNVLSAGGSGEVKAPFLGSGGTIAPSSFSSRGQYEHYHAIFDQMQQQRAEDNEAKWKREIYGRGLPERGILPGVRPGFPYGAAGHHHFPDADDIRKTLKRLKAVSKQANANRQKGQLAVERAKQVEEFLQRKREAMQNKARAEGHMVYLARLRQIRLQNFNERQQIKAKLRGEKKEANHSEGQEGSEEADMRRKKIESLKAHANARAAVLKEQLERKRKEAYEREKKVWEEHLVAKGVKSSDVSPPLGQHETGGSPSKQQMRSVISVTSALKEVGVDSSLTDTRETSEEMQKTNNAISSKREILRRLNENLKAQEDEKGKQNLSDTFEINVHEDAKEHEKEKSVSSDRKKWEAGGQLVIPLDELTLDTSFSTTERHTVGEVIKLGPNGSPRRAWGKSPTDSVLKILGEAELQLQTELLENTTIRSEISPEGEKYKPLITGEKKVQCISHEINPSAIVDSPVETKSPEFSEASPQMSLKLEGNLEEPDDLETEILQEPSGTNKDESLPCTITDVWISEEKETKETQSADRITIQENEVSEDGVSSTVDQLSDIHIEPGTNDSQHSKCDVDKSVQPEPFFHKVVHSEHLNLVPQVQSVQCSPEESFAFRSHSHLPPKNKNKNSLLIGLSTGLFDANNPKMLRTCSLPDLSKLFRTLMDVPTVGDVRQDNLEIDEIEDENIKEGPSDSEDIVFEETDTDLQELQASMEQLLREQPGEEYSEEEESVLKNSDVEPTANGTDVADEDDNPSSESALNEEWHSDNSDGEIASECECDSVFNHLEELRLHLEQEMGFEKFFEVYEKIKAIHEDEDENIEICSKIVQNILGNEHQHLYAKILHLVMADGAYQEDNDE

[2] = target: T2, Tyrosine-protein kinase receptor TYRO3 (Homo sapiens) (UniProt Q06418); experiment: Inhibition of human SKY at 18.6 nM by HotSpot assay relative to control
T2 sequence (whole entry): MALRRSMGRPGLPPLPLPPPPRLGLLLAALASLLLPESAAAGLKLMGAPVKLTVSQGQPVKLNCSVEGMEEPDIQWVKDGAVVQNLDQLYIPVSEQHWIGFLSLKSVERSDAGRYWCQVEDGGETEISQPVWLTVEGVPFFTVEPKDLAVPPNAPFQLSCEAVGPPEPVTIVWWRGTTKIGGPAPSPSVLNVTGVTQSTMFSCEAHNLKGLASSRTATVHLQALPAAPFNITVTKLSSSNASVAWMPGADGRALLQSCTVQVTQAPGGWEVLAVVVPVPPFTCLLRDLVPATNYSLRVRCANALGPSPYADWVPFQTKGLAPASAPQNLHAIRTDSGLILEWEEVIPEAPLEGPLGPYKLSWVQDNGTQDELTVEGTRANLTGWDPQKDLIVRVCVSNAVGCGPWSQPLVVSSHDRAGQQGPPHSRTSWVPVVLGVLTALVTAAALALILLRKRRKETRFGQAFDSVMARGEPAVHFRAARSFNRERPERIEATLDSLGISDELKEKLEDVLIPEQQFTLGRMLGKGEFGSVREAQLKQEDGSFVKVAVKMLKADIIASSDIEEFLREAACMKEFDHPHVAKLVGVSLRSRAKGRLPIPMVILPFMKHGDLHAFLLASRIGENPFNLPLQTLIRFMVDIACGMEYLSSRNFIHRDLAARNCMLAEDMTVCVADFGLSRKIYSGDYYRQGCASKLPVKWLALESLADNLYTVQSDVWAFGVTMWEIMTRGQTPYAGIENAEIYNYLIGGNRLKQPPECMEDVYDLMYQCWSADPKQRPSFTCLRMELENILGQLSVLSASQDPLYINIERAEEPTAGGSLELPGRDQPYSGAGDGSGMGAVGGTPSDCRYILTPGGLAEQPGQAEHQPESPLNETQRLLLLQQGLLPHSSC

[3] = target: MAP kinase-interacting serine/threonine-protein kinase 2 (Homo sapiens) (UniProt Q9HBH9); experiment: Inhibition of human MNK2 at 1.82 nM by HotSpot assay relative to control
Sequence of MAP kinase-interacting serine/threonine-protein kinase 2 (Homo sapiens) (Q9HBH9 whole entry, looked up): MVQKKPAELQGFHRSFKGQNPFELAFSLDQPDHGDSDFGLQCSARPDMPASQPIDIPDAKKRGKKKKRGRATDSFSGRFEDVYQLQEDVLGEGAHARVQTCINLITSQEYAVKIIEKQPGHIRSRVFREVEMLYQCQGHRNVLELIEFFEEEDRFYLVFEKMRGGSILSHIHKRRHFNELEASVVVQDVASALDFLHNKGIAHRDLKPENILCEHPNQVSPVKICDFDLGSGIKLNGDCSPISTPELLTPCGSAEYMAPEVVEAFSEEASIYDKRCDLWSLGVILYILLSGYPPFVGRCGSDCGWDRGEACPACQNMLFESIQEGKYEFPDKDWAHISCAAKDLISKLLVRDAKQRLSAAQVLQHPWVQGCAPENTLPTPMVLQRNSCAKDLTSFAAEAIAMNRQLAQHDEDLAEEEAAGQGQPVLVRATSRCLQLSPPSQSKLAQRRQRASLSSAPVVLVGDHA

[4] = target: Protein kinase C beta type (Homo sapiens) (UniProt P05771); experiment: Inhibition of human PKCb2 at 1.82 nM by HotSpot assay relative to control
Sequence of Protein kinase C beta type (Homo sapiens) (P05771 2-671 limits assumed): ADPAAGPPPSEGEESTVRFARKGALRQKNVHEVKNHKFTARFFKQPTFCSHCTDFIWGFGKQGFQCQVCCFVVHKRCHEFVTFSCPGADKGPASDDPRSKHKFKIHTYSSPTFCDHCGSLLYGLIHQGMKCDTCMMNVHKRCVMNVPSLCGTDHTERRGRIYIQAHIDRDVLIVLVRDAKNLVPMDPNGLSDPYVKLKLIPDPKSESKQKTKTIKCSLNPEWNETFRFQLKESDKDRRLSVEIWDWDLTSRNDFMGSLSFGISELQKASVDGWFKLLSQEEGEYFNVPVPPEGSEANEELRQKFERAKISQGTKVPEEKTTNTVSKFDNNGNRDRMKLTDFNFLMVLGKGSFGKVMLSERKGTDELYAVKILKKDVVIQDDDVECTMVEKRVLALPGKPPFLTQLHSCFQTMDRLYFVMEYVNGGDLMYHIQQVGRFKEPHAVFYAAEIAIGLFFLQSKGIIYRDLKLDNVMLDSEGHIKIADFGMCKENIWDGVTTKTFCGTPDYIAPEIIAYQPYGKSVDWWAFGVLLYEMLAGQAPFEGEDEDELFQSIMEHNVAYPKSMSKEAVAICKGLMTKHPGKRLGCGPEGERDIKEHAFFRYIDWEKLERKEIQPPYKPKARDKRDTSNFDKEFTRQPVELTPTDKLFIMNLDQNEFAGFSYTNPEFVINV

[5] = target: Mitogen-activated protein kinase kinase kinase 9 (Homo sapiens) (UniProt P80192); experiment: Inhibition of human MAP3K9 at 1.82 nM by HotSpot assay relative to control
Sequence of Mitogen-activated protein kinase kinase kinase 9 (Homo sapiens) (P80192 whole entry, looked up): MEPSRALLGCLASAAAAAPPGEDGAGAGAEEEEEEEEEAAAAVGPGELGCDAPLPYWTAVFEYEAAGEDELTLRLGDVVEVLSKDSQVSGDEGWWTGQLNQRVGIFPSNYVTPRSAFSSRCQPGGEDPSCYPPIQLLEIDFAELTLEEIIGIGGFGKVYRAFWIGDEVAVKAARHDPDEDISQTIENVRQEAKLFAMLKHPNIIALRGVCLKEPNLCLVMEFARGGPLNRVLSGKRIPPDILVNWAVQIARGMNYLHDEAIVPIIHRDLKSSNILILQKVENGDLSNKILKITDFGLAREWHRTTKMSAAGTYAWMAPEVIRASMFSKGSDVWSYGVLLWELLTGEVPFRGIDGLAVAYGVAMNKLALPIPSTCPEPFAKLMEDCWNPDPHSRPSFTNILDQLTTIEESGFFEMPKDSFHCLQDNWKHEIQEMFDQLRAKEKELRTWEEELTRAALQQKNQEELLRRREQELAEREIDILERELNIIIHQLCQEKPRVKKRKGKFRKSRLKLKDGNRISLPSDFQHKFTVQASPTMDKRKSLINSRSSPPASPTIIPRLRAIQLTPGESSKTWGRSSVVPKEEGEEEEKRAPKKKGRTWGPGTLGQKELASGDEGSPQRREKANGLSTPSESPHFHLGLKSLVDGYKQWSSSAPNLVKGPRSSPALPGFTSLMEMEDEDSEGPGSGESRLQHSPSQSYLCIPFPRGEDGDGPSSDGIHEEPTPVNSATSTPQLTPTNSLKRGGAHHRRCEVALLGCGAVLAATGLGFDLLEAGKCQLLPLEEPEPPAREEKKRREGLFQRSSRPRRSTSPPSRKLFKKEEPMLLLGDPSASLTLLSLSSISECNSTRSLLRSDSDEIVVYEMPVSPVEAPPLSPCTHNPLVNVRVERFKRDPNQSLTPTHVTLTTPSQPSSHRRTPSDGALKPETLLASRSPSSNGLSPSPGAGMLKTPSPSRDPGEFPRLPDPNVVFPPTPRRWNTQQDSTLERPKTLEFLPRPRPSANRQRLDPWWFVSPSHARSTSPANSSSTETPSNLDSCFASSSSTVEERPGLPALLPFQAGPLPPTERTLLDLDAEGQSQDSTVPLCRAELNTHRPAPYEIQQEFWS

Structure (SMILES): Nc1n[nH]c2nnc(-c3c(-c4ccccc4)nn4ccccc34)cc12
inhibition [1]: -9.24%

inhibition [2]: 1.42%
Structure (SMILES): C[C@]1(O)C[C@@H](c2nc(-c3ccc4ccc(-c5ccccc5)nc4c3)c3c(N)nccn32)C1

inhibition [3]: -4.8% | inhibition [4]: -3.58% | inhibition [5]: 2.63%
Structure (SMILES): C[C@@]1(C(=O)Nc2ccc(F)nc2)CCCN1c1nc(Nc2cc(C3CC3)n[nH]2)c2cccn2n1
